The values below come from patent US10653685B2, “Pharmaceutical compositions and methods for the treatment of hypoxia-related diseases” (priority 2015, dated 2020).

Molecules are shown by their SMILES.

The subject of experiment [1] is rat primary heart cells. Put plainly: CK released by rat primary heart cells under hypoxia. The format is cell-based. Conditions: hypoxia 3 hours. The protocol: (§1) Sprague Dawley rat hearts (1-2 days old) were sterilely removed and bathed three times in Ca^++ and Mg^++—free PBS to remove excess blood cells. The hearts were minced to small fragments and then agitated in a proteolytic enzyme-RDB solution (Life Science research, Inst., Nes Ziona, Israel) prepared from a fig tree extract as described previously (Brik et al., Basic Res. Cardiol. 85:237-246, 1990), Shneyvays et al., J Mol Cell Cardiol. 33:1249-1261, 2001). The RDB-solution was then diluted 1:200 in PBS at 25° C. for a few cycles of 10 min each. The supernatant suspension containing dissociated cells, to which medium containing 10% horse serum was added, was centrifuged at 500 g for 5 min. After centrifugation, the supernatant phase was discarded, and cells were re-suspended in Dulbecco's modified Eagle medium supplemented with 10% heat-inactivated horse serum and 0.5% chick embryo extract. Cell suspensions were diluted to 1×10^6 cells/ml, and […] samples were placed in 24 well plates (4 plates) collagen/gelatin coated plastic culture dishes. […] The day after, Cells were washed to remove dead cells, and growth medium was replaced, as well as every 2 days and before experiment initiation, this time with glucose-free PBS. The experiments were then performed in vitro on these cardiomyocyte cultures after 5 days following the day of procedure beginning. Right before Hypoxia experiments, cultures wells were incubated in a humidified atmosphere incubator of 5% CO2 and 95% air at 37° C. for 30 minute steady state.
(§2) Approximately 3×10^5 cardiomyocytes/well from neonatal rat hearts were cultured with glucose-free PBS and exposed to hypoxia (oxygen and glucose deprivation) for 180 min. using a procedure essentially as described by O. Golan et al. (Biochemical pharmacology, 81 (2011), pp. 1219-1227)
(§3) In brief, Hypoxia was performed in a closed chamber by replacement of air with 100% Argon. During hypoxia Oxygen levels in the N2 atmosphere was below 1%. And after 180 min. of hypoxia, the pO2 in the PBS was <0.4 Torr. Hypoxic stress injury was determined based on the activity of lactate dehydrogenase (LDH) and creatine kinase (CK) released from the cells, at the end of 3 hr. hypoxic phase, and consequently after additional 2 hr. of reoxygenation.
For both LDH and CK measurements, 25 μL aliquots of each well incubated for 180 min under hypoxia, were transfer to clean 24 wells trays, which were placed within the automatic spectrophotometer and the product of the enzyme activity was measured through a wavelength of 340 nm at 30° C., under shaking. […]
Creatine Kinase (CK) activity was determined within the cardiac cell medium (PBS) using CK-NAC Reagent (Creatine kinase, activated by N-acetyl cysteine) from Thermo Fisher Scientific Inc. Middletown, Va. […]

Another experiment concerns heart cells. Particulars: maximum protection, WO 2013/003445; cited from earlier work.
Experiment [2] has as its system rat primary heart cells. Put plainly: LDH released by rat primary heart cells under hypoxia. The format is cell-based. Particulars: hypoxia 3 hours. As for the experimental part: as §1, §2, §3
For both LDH and CK measurements, 25 μL aliquots of each well incubated for 180 min under hypoxia, were transfer to clean 24 wells trays, which were placed within the automatic spectrophotometer and the product of the enzyme activity was measured through a wavelength of 340 nm at 30° C., under shaking. Results were expressed relatively to the control.
Lactate dehydrogenase (LDH) activity was determined within the cardiac cell medium (PBS) using LDH-L kit (Thermo Trace, Melbourne, Australia). […]

With `c1ccc(CN(CCN(Cc2ccccn2)Cc2ccccn2)Cc2ccccn2)nc1` [TPEN, N,N,N′,N′-tetrakis-(2-pyridylmethyl)-ethylenediamine], in the experiment with rat primary heart cells [1] (sodium alginate 0, TPEN 0.3 μM), the “CK Reduction” value is 46.6% and the “Mean (CK released from rat heart cells)” value came to 0.0411. Moreover, in the experiment on rat primary heart cells [1] (sodium alginate 0, TPEN 1 μM), the “CK Reduction” value amounted to 14.3% and the “Mean (CK released from rat heart cells)” value came out at 0.0643. The “protection from hypoxia stress injury” value in the experiment with heart cells is listed as not above 70%. Besides, in the experiment with rat primary heart cells [2] (sodium alginate 0, TPEN 0.3 μM), the “LDH Reduction” value turned out to be 39.5% and the “Mean (LDH released from rat heart cells)” value was 0.0409. Besides, in the experiment on rat primary heart cells [2] (sodium alginate 0, TPEN 1 μM), the “LDH Reduction” value stood at 10.0% and the “Mean (LDH released from rat heart cells)” value came out at 0.0647.
